Measured values reported in patent EP4624497A1, “PHOSPHOEN[…] PROBE, PREPARATION METHOD THEREFOR AND APPLICATION THEREOF” (priority 2022, dated 2024).

Test system: 293 cells with optical probe plasmids expressed in the cytosol
Assay: dynamic monitoring of phosphoenolpyruvate in the cytosol with the optical probe
Assay type: cell-based
Details: 5 mM Oxalate added, detection continued for 30 minutes, HBSS solution
Method: • 1. pCDNA3.1+-based phosphoenolpyruvate optical probe plasmids were transfected into HEK293 by using the transfection reagent Lipofectamine2000 (Invitrogen) and incubated in a cell incubator at 37 °C with 5% CO2. After the exogenous gene was fully expressed for 24~36 hours, the fluorescence detection was performed. • 2. After induction of expression, adherent HEK293 cells were washed three times with PBS and placed in HBSS solution for fluorescence microscopy and microplate reader assays, respectively.
In this example, different localization signal peptides were used to fuse to the optical probe 254/255-TtPFK- I253K/Q254L/R255L/G256F-cpYFP-Y1S which was localized in different organelles.
Thirty-six hours after transfection of 293 cells with optical probe plasmids expressed in the cytosol, the cells were rinsed with PBS, placed in an HBSS solution, and the change in the ratio of the fluorescence intensity at an excitation of 420 nm and an emission of 528 nm to that at an excitation of 485 nm and an emission of 528 nm was detected in a 30-minute period.

## O=C(O)C(=O)O [Oxalate]
  485/420 ratio: up to 3.5 times the initial value
